Data as given in paper PMC11778240, “Synthesis and preclinical evaluation of tigilanol tiglate analogs as latency-reversing agents for the eradication of HIV” (Science Advances, 2025).

How the values were obtained:
PKC-β fused to GFP = target: T1, PKC-β fused to GFP (Homo sapiens, UniProt P05771); assay: PKC-GFP translocation assay in CHO-K1 cells (confocal microscopy); assay type: cell-based; details: 500 nM, within 10 min
T1 construct: host or cells: CHO-K1
Excerpt: (§1) Using confocal microscopy, this assay allows us to visualize, in real time, cell permeation and the ligand-induced translocation of specific PKC isoforms from the cytosol to the membranes of the cell—the hallmark of PKC activation ([29], [68]). […] In alignment with past studies on the activation of PKC in CHO-K1 cells ([22], [65], [69]), we observed strong plasma membrane translocation of PKC-β (Fig. 7C).
(§2) Agar stabs of DH5-alpha (high copy) bacterial cells, containing plasmids for expression of mammalian PKC-δ (Plasmid #: 178856) and PKC-β (Plasmid #: #112265) fused to EGFP under constitutive mammalian promoters CAG and CMV, respectively, were purchased from Addgene.
(§3) Upon receipt, these stabs were incubated at 37 °C in 5% CO2 for 24 hours to allow sufficient bacterial growth. Following incubation, a sterile pipette tip was utilized to streak bacteria onto LB agar plates that are positive for the respective antibiotic that selects for each plasmid. For bacteria containing Plasmid #: 178856, bacteria were streaked onto CellPro™ LB (Lennox) + Ampicillin 100 μg/ml while bacteria containing Plasmid #: 112265 was streaked onto CellPro™ LB (Miller) + Kanamycin 50 μg/ml and incubated for 24 hours at 37 °C in 5% CO2 in order to isolate single colonies of bacteria. Single, isolated bacterial colonies were selected utilizing a sterile pipette tip and placed in polypropylene culture tubes with vented stoppers containing 2mL of LB Broth Miller (Catalog No. BP1426-500) and the respective antibiotic for each plasmid at the recommended concentration of 100 μg/ml for ampicillin and 50 μg/ml for kanamycin. Following inoculation, these liquid cultures were placed on a shaker at 37 °C at 225rpm for 24 hours. The next day, the plasmids were sequestered and purified from the bacteria utilizing the Thermo Scientific™ GeneJET Plasmid Miniprep Kit (Catalog No. K0502).
(§4) PKC-β/PKC-δ plasmid purification
(§5) To sequester and purify plasmid from each culture tube, bacteria was resuspended in culture and transferred to sterile 1.7mL microcentrifuge tubes with 1 mL of bacteria placed into each tube. To harvest the bacteria, microcentrifuge tubes were placed in a microcentrifuge and spun at 8000 rpm for 2 minutes at room temperature. Note that all subsequent centrifugations were performed in a tabletop microcentrifuge at room temperature. Following centrifugation, the supernatant was decanted and 250 μL of Resuspension solution was added to the pelleted cells and vortexed.
(§6) Afterwards, 250 μL of Lysis Solution was added to the resuspended bacterial cells and tubes were inverted 4-6 times and allowed to incubate for no more than 5 minutes to avoid denaturation of the plasmid DNA. After lysing the bacterial cells, 350 μL of Neutralization Solution was immediately added and tubes were inverted 4-6 times. Tubes were then centrifugated for 5 minutes at 14,000 rpm to pellet the cell debris and chromosomal DNA. The supernatant was then carefully aspirated using a pipette, taking care not to distribute the white precipitate of cell and DNA debris and transferred to the GeneJET spin columns, provided in the GeneJET Miniprep Kit. The spin columns were subsequently centrifugated for 1 minute, the flow-through was discarded, and the column was placed back into the same collection tube. 500 μL of Wash Solution, diluted with 96% ethanol, was added to the column, and the column was centrifugated for 1 minute at 14,000 rpm.
(§7) The flow-through was discarded and the column was placed back into the same collection tube.
(§8) This wash process was repeated a second time, after which the spin columns were centrifugated for an additional 1 minute to ensure all residual Wash solution was removed from the plasmids.
(§9) The GeneJET spin columns were then transferred to new 1.7mL microcentrifuge tubes, and 50 μL of Elution Buffer was added to the center of the spin column to allow optimal elution of the plasmid
(§10) DNA. Before centrifugating for 2 minutes, the columns were allowed to incubate for 2 minutes at […]
(§11) room temperature. […]

PKC-δ fused to GFP = target: T2, PKC-δ fused to GFP (Homo sapiens, UniProt Q05655); assay: as above; assay type: cell-based; details: 1500 nM, within 10 min
T2 construct: host or cells: CHO-K1
T2 sequence (Q05655 whole entry, the tested form may be a part): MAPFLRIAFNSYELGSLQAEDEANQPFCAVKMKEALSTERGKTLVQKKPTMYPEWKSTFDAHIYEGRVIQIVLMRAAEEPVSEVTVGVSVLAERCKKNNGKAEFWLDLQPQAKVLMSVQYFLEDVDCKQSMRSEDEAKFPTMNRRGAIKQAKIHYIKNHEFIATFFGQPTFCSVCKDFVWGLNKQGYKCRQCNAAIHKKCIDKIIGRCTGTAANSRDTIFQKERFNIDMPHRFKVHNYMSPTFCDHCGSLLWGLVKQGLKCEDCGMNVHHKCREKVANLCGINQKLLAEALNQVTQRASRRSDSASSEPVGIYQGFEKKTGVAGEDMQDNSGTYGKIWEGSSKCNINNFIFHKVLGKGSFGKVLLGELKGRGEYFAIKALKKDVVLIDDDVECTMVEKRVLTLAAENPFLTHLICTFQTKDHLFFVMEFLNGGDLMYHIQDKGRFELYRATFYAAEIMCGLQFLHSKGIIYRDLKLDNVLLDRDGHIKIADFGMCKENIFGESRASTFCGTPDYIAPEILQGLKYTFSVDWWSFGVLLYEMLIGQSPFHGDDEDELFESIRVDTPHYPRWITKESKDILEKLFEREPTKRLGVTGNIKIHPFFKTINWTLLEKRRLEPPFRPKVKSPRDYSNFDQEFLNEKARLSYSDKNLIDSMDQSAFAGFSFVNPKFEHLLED
Excerpt: as §1, §2, §3, §4, §5, §6, §7, §8, §9, §10, §11

tumor necrosis factor–α = assay: TNF-α ELISA, A549 cells; assay type: cell-based, Human; details: for TNF-α (ELISA): 24 hours, lowest detectable limit 3.5 pg/ml
Method: We stimulated A549 cells with SUW402 and SUW431 at the same concentrations used in the NF-κB activation assay: 500 and 50 nM (figs. S1 and S2).
In efforts to replicate the conditions of the in vitro NF -κB assay, 5 x 10^4 A549 cells were plated per well on Corning® 96-well Clear Round Bottom TC-treated Microplates in 180 μl of pre-warmed DMEM (4.5 g/L glucose, 10% FBS, and 1% Pen-Strep-Glutamine (100 X, 50 mg/mL)).
Following incubation at 37 °C in 5% CO2 for approximately 24 hours to allow for cell adherence, 1.8 μl of either SUW402 or SUW431 were added in triplicate to their respective wells to achieve a final compound concentration of either 50 nM or 500 nM, the two concentrations tested in the NF-κB assay. 24 hours after compound addition, the microplate containing cells treated with compound was spun at 1800 rpm for 3 minutes to allow for pelleting of cells and other debris before 150 μL of cellular supernatant was aspirated and transferred to a new Corning® 96 -well Clear Round Bottom TC-treated Microplate. Note that if the supernatant is not meant to be immediately analyzed, the microplate containing cellular supernatant should be paraf ilm, wrapped, and stored at -80 °C. Careful attention should be paid to avoiding freeze-thaw cycles. To quantify cytokine secretion within samples, dilutions were performed using Assay Buffer A included in the LEGEND MAX™ Human IL-8 ELISA Kit (Cat # 431507) and LEGEND MAX™ Human TNF-α ELISA Kit (Cat # 430207), respectively.
Immediately before running the assay, reagents were allowed to come to room temperature and diluted. Note that if the supernatant is frozen, it should be removed at this time and allowed to thaw. The 1X Wash Buffer was prepared by diluting the 20X Wash Buf fer with Invitrogen™ UltraPure™ DNase/RNase-Free Distilled Water. The lyophilized human IL-8 and TNF-α standards were reconstituted by adding the appropriate volume of Assay Buffer A to prepare the 20 ng/mL standard stock solutions. The reconstituted stand ards were allowed to sit at room temperature for 20 minutes before being gently vortexed to ensure complete mixing. To generate a standard curve for each cytokine, 500 μL of a 1,000 pg/mL top standard was prepared after which six two -fold serial dilutions of the top standard were performed in 1.7 mL microcentrifuge tubes using Assay
The Anti-Human IL-8 pre-coated 96-well Strip Microplate and Anti-Human TNF-α pre-coated 96-well Strip Microplate were each washed 4 times by hand. With each wash, at least 300 μL of 1X Wash Buffer was added per well and aspirated, and any residual buffer was removed by blotting the plate on an absorbent paper towel. Following this wash cycle, 50 μL of Assay Buffer A was added to each well that would ultimately contain sample or standard. To rigorously ensure no cellular debris was left in the analyte, an ad ditional centrifugation step was performed (1800 rpm for 3 minutes) before transferring 50 μL of sample or standard dilutions to the appropriate wells.
Adhesive plate sealers were utilized to cover the plates, prevent contamination, and avoid sample evaporation after which each plate was placed on a cell shaker and allowed to shake at room temperature at 200 rpm for 2 hours. Following incubation, the contents of each plate were discarded and subsequently washed by hand 4 times with 1X Wash Buffer, as previo usly reported. […]

T1 sequence (P05771 whole entry, the tested form may be a part): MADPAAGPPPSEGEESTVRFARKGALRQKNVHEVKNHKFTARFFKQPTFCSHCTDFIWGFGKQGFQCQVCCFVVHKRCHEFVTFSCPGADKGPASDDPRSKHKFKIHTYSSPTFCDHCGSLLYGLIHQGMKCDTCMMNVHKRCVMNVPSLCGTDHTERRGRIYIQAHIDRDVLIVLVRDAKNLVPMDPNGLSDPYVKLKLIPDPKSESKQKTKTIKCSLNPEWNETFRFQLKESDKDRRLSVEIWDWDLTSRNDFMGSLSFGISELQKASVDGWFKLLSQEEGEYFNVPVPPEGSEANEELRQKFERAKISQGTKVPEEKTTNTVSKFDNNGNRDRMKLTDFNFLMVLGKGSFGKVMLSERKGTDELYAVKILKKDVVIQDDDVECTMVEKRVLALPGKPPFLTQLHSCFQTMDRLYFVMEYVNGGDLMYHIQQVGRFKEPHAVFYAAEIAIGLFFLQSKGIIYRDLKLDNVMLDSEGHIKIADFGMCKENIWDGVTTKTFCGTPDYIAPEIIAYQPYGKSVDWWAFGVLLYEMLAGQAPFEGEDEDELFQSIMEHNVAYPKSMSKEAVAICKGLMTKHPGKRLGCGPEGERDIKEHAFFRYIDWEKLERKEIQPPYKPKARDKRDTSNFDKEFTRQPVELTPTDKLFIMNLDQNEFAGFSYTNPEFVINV

| Compound | translocation of PKC-β-GFP in words (PKC-β fused to GFP) | translocation of PKC-δ-GFP in words (PKC-δ fused to GFP) | TNF-α (ELISA) (tumor necrosis factor–α; 50 nM) [pg/mL] | TNF-α (ELISA) (tumor necrosis factor–α; 500 nM) [pg/mL] | tumor necrosis factor–α production in words (tumor necrosis factor–α; 500 and 50 nM) |
| --- | --- | --- | --- | --- | --- |
| C/C=C(\C)C(=O)O[C@@H]1[C@@H](C)[C@@]2(O)[C@H]([C@@H]3C(C)(C)[C@]13OC(=O)[C@@H](C)CC)[C@@H]1O[C@]1(CO)[C@@H](O)[C@]1(O)C(=O)C(C)=C[C@H]12 [EBC-46, Tigilanol tiglate] | effectively translocate PKC-β at 500 nM | selectively induced perinuclear translocation of PKC-δ |  |  |  |
| C/C=C(\C)C(=O)O[C@@H]1[C@@H](C)[C@@]2(O)[C@@H](C=C(CO)C[C@]3(O)C(=O)C(C)=C[C@@H]23)[C@@H]2C(C)(C)[C@]12OC(=O)[C@@H](C)CC [SUW402] |  |  | < 3.5 | < 3.5 | did not produce detectable levels of tumor necrosis factor–α at either concentration |
| CC[C@H](C)C(=O)O[C@@]12[C@H](OC(C)(C)C)[C@@H](C)[C@@]3(O)[C@H]([C@@H]1C2(C)C)[C@@H]1O[C@]1(CO)[C@@H](O)[C@]1(O)C(=O)C(C)=C[C@H]13 [SUW430] | effectively translocate PKC-β at 500 nM | selectively induced perinuclear translocation of PKC-δ |  |  |  |
| C/C=C(\C)C(=O)O[C@@H]1[C@@H](C)[C@@]2(O)[C@H]([C@@H]3C(C)(C)[C@]13OC(=O)Cc1cccc3ccccc13)[C@@H]1O[C@]1(CO)[C@@H](O)[C@]1(O)C(=O)C(C)=C[C@H]12 [SUW431] | effectively translocate PKC-β at 500 nM | strong perinuclear and plasma membrane translocation of PKC-δ | 4.4 | 8.4 |  |
